Values of other authors in patent publication US20010009917A1, “Methods and compositions for treating asthma, atherosclerosis and inflammatory diseases using optically pure (-zileuton” (priority 1993, published 2001).
Values belong to the compound of their own block, whether it stands above or below them.

Assays:
LTB4 = details: human volunteers, 800 mg p.o. twice per day for four weeks
[1] = biological target: T1, human platelet 12-lipoxygenase (Homo sapiens, UniProt P18054)
T1 construct: the supernatant containing the 12-lipoxygenase activity stored frozen until used; from tissue; host or cells: human platelets, sonicated lysate supernatant
T1 sequence (P18054 1-663): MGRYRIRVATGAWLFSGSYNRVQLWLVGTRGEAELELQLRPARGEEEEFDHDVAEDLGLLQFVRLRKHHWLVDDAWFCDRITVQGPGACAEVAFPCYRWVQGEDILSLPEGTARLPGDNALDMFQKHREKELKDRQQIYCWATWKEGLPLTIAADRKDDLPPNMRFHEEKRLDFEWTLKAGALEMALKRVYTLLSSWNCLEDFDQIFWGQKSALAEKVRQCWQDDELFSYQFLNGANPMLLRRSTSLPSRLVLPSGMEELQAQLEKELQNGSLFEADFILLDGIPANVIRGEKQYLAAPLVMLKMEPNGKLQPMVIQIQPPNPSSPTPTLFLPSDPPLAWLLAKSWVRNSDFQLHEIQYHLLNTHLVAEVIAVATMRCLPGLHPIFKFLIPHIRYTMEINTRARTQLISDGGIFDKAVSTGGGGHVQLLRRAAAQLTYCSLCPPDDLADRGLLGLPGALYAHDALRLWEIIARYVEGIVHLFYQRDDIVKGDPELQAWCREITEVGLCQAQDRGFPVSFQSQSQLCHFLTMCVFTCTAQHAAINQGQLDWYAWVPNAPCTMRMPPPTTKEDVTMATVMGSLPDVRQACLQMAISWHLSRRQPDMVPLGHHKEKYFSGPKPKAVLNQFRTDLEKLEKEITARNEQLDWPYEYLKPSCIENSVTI

[2] = biological target: T2, sheep seminal vesicle cyclooxygenase (Ovis aries, UniProt P05979)
T2 construct: incubations with sheep seminal vesicle gland microsomes (2 mg/mL); from tissue; host or cells: sheep seminal vesicle gland microsomes
T2 sequence (P05979 25-600): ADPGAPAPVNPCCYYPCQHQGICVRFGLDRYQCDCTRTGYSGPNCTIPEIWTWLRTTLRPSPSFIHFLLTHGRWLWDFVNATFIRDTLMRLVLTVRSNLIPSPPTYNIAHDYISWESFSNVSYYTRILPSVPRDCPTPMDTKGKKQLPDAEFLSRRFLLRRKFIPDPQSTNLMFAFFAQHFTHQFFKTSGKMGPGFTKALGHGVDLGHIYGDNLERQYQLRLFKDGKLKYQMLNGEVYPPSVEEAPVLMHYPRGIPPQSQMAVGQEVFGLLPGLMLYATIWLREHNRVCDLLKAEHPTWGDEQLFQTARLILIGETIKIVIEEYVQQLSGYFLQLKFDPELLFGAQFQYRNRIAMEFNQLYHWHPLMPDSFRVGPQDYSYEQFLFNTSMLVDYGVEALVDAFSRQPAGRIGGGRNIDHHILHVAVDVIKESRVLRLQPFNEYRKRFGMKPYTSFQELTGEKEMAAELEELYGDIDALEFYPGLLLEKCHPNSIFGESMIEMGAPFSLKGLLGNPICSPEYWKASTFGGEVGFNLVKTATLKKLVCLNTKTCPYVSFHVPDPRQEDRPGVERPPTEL

[3] = dog liver microsomes

Structure (SMILES): CC(c1cc2ccccc2s1)N(O)C(N)=O (racemic) [racemic zileuton, N-(1-benzo[b]thien-2-ylethyl)-N-hydroxyurea]
decreases in LTB4 (LTB4): 75 to 85%
patients reporting an adverse event during the four week trial (four week trial): One hundred
improvement in symptoms of rheumatoid arthritis (human volunteers, 800 mg p.o. twice per day for four weeks): statistically significant improvement
inhibitory effect on human platelet 12-lipoxygenase [1]: little inhibitory effect
inhibitory effect on sheep seminal vesicle cyclooxygenase [2]: little inhibitory effect

effect on glucuronidation of S-(−)-zileuton [3]: enhancement of that reaction
Structure (SMILES): C[C@H](c1cc2ccccc2s1)N(O)C(N)=O [(+)-zileuton, (+) isomer of N-(1-benzo[b]thien-2-ylethyl)-N-hydroxyurea]

glucuronidation [3]: selective glucuronidation
Structure (SMILES): C[C@@H](c1cc2ccccc2s1)N(O)C(N)=O [S-(−)-zileuton]

Structure (SMILES): CC(C)NC[C@H](O)COc1cccc2ccccc12 [propranolol]
potency relative to the D-enantiomer (beta-adrenergic): 100 times
